Results on five molecules are retold here after patent US6949352B2, “Serine-threonine phosphatase protein of a parasitic organism of the Apicomplexa phylum, applications in therapeutics” (Centre National de la Recherche Scientifique (CNRS), priority 2001, dated 2005).

The test system of data set [1] is parasite kinase activity which phosphorylates Toxofilin. The data set can be described thus: Kinase reaction on rToxofilin with tachyzoïte cytosolic fraction, with pharmacological inhibitors. The note with it: inhibitors added 15 min before starting the kinase reaction: heparin 20 μg per ml, GTP 200 μM, DRB 100 μM, [γ32P] ATP, 30° C. Format: biochemical, Toxoplasma gondii. How it is done:
Kinase reaction: 2 μg of immobilized rToxofilin on protein G-dynabeads were washed in kinase buffer before to be incubated with a tachyzoïte cytosolic fraction prepared in kinase buffer ([…]) and precleared on protein G-dynabeads. The reaction was started by adding 100 μM of Na2 ATP and 10 μCi of [γ^32P] ATP (3000 Ci/mmol, NEN life science product, Inc) (15 min, 30° C.). Unbound materials and unincorporated [γ^32P] ATP were washed out with 200 volumes of kinase buffer containing with TX-100 (0.5% vol/vol) followed by 100 volumes of kinase buffer. Toxofilin and bound proteins were eluted in SDS-PAGE sample buffer prior to electrophoresis and radioactivity scan (phosphoimager, Molecular Dynamics). Toxofilin phosphorylation was quantified using NIH Image Quant software.
To characterize the kinase activity responsible for Toxofilin phosphorylation, three types of experiments were carried out:
1) Pharmacological inhibitors such as heparin (20 μg per ml, Sigma), GTP (200 μM, Sigma), 5,6-dichloro-1-B-D-ribofuranosylbenzimidazole (100 μM, Calbiochem) or staurosporine (1 μM, Calbiochem) were added 15 min before starting the kinase reaction.

The test system of data set [2] is recombinant Toxofilin (r-Toxofilin) without GST.
The target of data set [3] is recombinant Toxofilin (r-Toxofilin) without GST. This is another data set of the same source.

Turning to `OC[C@H]1O[C@@H](n2cnc3cc(Cl)c(Cl)cc32)[C@H](O)[C@@H]1O` [DRB, 5,6-dichloro-1-B-D-ribofuranosylbenzimidazole], the “inhibition of the parasite kinase activity which phosphorylates Toxofilin” value (from here on “inhibition”) in data set [1] is listed as “inhibited”. As for `Nc1nc2c(ncn2[C@@H]2O[C@H](COP(=O)(O)OP(=O)(O)OP(=O)(O)O)[C@@H](O)[C@H]2O)c(=O)[nH]1` [GTP], the “inhibition” value in data set [1] was “inhibited”. As for Human casein kinase II, the “phosphorylation of Toxofilin” value in data set [2] is listed as “Human casein kinase II works well at phosphorylating Toxofilin”.

Consider heparin [soluble heparin], for which, in data set [1], the “inhibition” value is “inhibited”.

B1: Thioredoxin-Hispatch Tg PP2C (protein)
chain: MKSSAEIRRTMDVPPTIHVPLPPTSYPAFDAAIFTDIGGRKHQEDRFTLCPQLVPGRDDCAFFGVFDGTVGDFASENVKDLVVPQLISSPAWQEVTEMLRSDVPATEVDEKLPQLLDQAVDDMYKNADNELVKMCEQLNKDYASSTSVTAVLAKGFVAVGHLGDSRIAMGVETPNGLNCEFLTVDHKPDMPHEKLRIMRNGGSVEYLHNHNNKPFIRGGDFSFRKSRGEQPMQLQYSRALGGKDLKMYGLSNQPDVRVVRVTPQHRVMILATDGLWDVMFAAQAVEIAMQARQEGRNPAQALVEMTLAEQQSRNQSADNITAMTVFFKKTD
As to B1, in data set [3], the “in vitro phosphatase assay on 32P-phosphorylated Toxofilin” value is listed as “Toxofilin is a major substrate for type 2C phosphatase”.
